Calls of active or inactive are those of the source. The calls are words filed in the database; no cut-off is given here.
Experiments:
[1] = Antioxidant activity of the compound assessed as inhibition of ABTS radicals after 20 mins by spectrophotometric analysis; format: physicochemical
Saccharomyces cerevisiae = assay: Inhibition of Saccharomyces cerevisiae alpha-glucosidase type 1 assessed as 4-nitrophenol cleavage product by high-resolution biochromatogram

Compound	inhibition (INH) [1]	Activity (Saccharomyces cerevisiae)
O=c1c(-c2ccc(O)cc2)coc2cc(O)cc(O)c12 [GENISTEIN]	Not Active	–
O=c1c(-c2ccc(O)cc2)coc2cc(O[C@@H]3O[C@H](CO)[C@@H](O)[C@H](O)[C@H]3O)ccc12 [DAIDZIN]	Not Active	Active
O=c1c(-c2ccc(O)cc2)coc2cc(O)ccc12 [DAIDZEIN]	Active	Active
COc1ccc(C2=CC(=O)O[C@H]2Cc2ccc(O)cc2)c(O[C@@H]2O[C@H](CO)[C@@H](O)[C@H](O)[C@H]2O)c1	Not Active	Active
O=c1c(-c2ccc(O[C@@H]3O[C@H](CO)[C@@H](O)[C@H](O)[C@H]3O)cc2)coc2cc(O)ccc12	Not Active	–
COc1cc(-c2coc3cc(O[C@@H]4O[C@H](COC(=O)CC(=O)O)[C@@H](O)[C@H](O)[C@H]4O)ccc3c2=O)ccc1O	Not Active	–
O=Cc1c(-c2ccc(O)cc2O)oc2cc(O)ccc12	Active	–
COc1ccc(-c2coc3cc(O[C@@H]4O[C@H](COC(=O)CC(=O)O)[C@@H](O)[C@H](O)[C@H]4O)ccc3c2=O)cc1	Not Active	–
O=C(O)CC(=O)OC[C@H]1O[C@@H](Oc2ccc3c(=O)c(-c4ccc(O)cc4)coc3c2)[C@H](O)[C@@H](O)[C@@H]1O	Not Active	Active
COc1ccc(-c2coc3cc(O[C@@H]4O[C@H](CO)[C@@H](O)[C@H](O)[C@H]4O)ccc3c2=O)cc1 [ONONIN]	Not Active	–
COc1ccc(-c2coc3cc(O[C@@H]4O[C@H](CO)[C@@H](O)[C@H](O)[C@H]4O)cc(O)c3c2=O)cc1	Not Active	–
O=c1c(-c2ccc(O)cc2)coc2cc(O[C@@H]3O[C@H](CO)[C@@H](O)[C@H](O)[C@H]3O)cc(O)c12 [GENISTIN]	Not Active	Active

Further lines, results first:

inhibition (INH) [1]	Activity (Saccharomyces cerevisiae)	Compound
Not Active	–	COc1ccc(-c2coc3cc(O)ccc3c2=O)cc1 [FORMONONETIN]
Not Active	–	COc1cc(-c2coc3cc(O[C@@H]4O[C@H](CO)[C@@H](O)[C@H](O)[C@H]4O)ccc3c2=O)ccc1O
Not Active	Active	O=C(O)CC(=O)OC[C@H]1O[C@@H](Oc2cc(O)c3c(=O)c(-c4ccc(O)cc4)coc3c2)[C@H](O)[C@@H](O)[C@@H]1O
Not Active	Active	O=c1c(-c2ccc(O)cc2)coc2c([C@@H]3O[C@H](CO)[C@@H](O)[C@H](O)[C@H]3O)c(O)ccc12 [PUERARIN]
Not Active	–	COc1ccc(-c2coc3cc(O[C@@H]4O[C@H](COC(=O)CC(=O)O)[C@@H](O)[C@H](O)[C@H]4O)cc(O)c3c2=O)cc1

— ChEMBL document CHEMBL3425492, “Dual high-resolution α-glucosidase and radical scavenging profiling combined with HPLC-HRMS-SPE-NMR for identification of minor and major constituents directly from the crude extract of Pueraria lobata” (J Nat Prod, 2015)
